Assay results: PMC4887296 (Biochemistry, 2016)
Where two headings read alike, the source gives them in different places.

What was measured:
wild-type ypFabV [1] = target: T1, wild-type ypFabV (Yersinia pestis, UniProt Q8Z9U1); assay type: biochemical
Wt ypFabV = Wt ypFabV (Yersinia pestis, UniProt Q8Z9U1); experiment: biochemical; assay type: binding
wild-type ypFabV [2] = target: T1, wild-type ypFabV; assay type: biochemical; remark: listed apart in the source

T1 sequence (Q8Z9U1 whole entry, looked up): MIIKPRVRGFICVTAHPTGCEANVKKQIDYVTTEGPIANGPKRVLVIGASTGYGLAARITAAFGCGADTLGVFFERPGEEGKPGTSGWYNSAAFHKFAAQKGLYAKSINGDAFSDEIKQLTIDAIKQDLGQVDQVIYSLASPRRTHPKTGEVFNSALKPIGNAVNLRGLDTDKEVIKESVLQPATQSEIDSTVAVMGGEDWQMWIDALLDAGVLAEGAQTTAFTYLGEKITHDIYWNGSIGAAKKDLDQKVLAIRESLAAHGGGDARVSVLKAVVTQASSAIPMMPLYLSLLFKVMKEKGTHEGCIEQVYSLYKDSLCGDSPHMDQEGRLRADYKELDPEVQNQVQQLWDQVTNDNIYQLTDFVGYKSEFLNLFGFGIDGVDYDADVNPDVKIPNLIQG
Chain of Wt ypFabV (Q8Z9U1 whole entry, looked up): as above

SMILES | Km (wild-type ypFabV [1]; read-out: KM (global fit)) | product inhibition pattern with respect to NADH, wild-type ypFabV (wild-type ypFabV [2]) | product inhibition pattern with respect to ddCoA, wild-type ypFabV (wild-type ypFabV [2]) | kcat, wild-type ypFabV (wild-type ypFabV [1]) | Km (wild-type ypFabV [1]; read-out: KM, wild-type ypFabV) | further results
NC(=O)C1=CN([C@@H]2O[C@H](COP(=O)(O)OP(=O)(O)OC[C@H]3O[C@@H](n4cnc5c(N)ncnc54)[C@H](O)[C@@H]3O)[C@@H](O)[C@H]2O)C=CC1 [NADH] | 10 ± 1 µM |  |  |  |  | Ki (wild-type ypFabV [1]; read-out: Ki, NADH): 22 ± 3 µM; Kd (Wt ypFabV; read-out: Kd Wt ypFabV, pH 8): 13 ± 1 µM
NC(=O)c1ccc[n+]([C@@H]2O[C@H](COP(=O)([O-])OP(=O)(O)OC[C@H]3O[C@@H](n4cnc5c(N)ncnc54)[C@H](O)[C@@H]3O)[C@@H](O)[C@H]2O)c1 [NAD^+] |  | competitive | noncompetitive |  |  | 
CCCCCCCCC/C=C/C(=O)SCCNC(=O)CCNC(=O)[C@H](O)C(C)(C)COP(=O)(O)OP(=O)(O)OC[C@H]1O[C@@H](n2cnc3c(N)ncnc32)[C@H](O)[C@@H]1OP(=O)(O)O [ddCoA, trans-2-dodecenoyl-CoA] | 19 ± 1 µM |  |  | 91.13 ± 7.1 s⁻¹ | 14 ± 1 µM | kcat (global fit) (wild-type ypFabV [1]): 97.67 ± 6.47 s⁻¹; Kd (Wt ypFabV): 13 ± 1 µM
CCCCCCCCCCCC(=O)SCCNC(=O)CCNC(=O)[C@H](O)C(C)(C)COP(=O)(O)OP(=O)(O)OC[C@H]1O[C@@H](n2cnc3c(N)ncnc32)[C@H](O)[C@@H]1OP(=O)(O)O [lauroyl-CoA, Lauroyl-CoA] |  | noncompetitive | noncompetitive |  |  | 
CCCCCCC/C=C/C(=O)SCCNC(=O)CCNC(=O)[C@H](O)C(C)(C)COP(=O)(O)OP(=O)(O)OC[C@H]1O[C@@H](n2cnc3c(N)ncnc32)[C@H](O)[C@@H]1OP(=O)(O)O [trans-2-decenoyl-CoA] |  |  |  | 5.53 ± 0.333 s⁻¹ | 23 ± 3 µM | 
CCCCC/C=C/C(=O)SCCNC(=O)CCNC(=O)[C@H](O)C(C)(C)COP(=O)(O)OP(=O)(O)OC[C@H]1O[C@@H](n2cnc3c(N)ncnc32)[C@H](O)[C@@H]1OP(=O)(O)O [trans-2-octenoyl-CoA] |  |  |  | 0.267 ± 0.017 s⁻¹ | 7 ± 1 µM | 
